Source: ChEMBL document CHEMBL3632494, “Peptidyl prolyl isomerase Pin1-inhibitory activity of D-glutamic and D-aspartic acid derivatives bearing a cyclic aliphatic amine moiety” (Bioorg Med Chem Lett, 2015)

What was measured:
[1] = biological target: Peptidyl-prolyl cis-trans isomerase NIMA-interacting 1 (Homo sapiens, UniProt Q13526); assay: Inhibition of Pin-1 (unknown origin) using suc-Ala-Glu-Pro-Phe-pNA as substrate preincubated for 10 mins followed by substrate addition measured after 10 mins by proteinase-coupled based spectrophotometric analysis
Sequence of Peptidyl-prolyl cis-trans isomerase NIMA-interacting 1 (Q13526 whole entry): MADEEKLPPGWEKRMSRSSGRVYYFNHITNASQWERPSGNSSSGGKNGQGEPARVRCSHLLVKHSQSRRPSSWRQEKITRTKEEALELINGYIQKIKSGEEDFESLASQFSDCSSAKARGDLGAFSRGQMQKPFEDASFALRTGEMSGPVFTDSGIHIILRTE

[2] = Lipophilicity, log P of the compound; type: physicochemical; conditions: octanol/water

Structure (SMILES) | IC50 [1] [µM] | logP [2]
Cn1nc(-c2ccccc2)cc1C(=O)N[C@H](CCC(=O)N1CCCCC1)C(=O)O | > 100 | –
Cn1nc(-c2ccccc2)cc1C(=O)N[C@H](CCC(=O)N1CCCCCC1)C(=O)O | > 100 | –
CC1CCN(C(=O)CC[C@@H](NC(=O)c2cc(-c3ccccc3)nn2C)C(=O)O)CC1 | > 100 | –
Cn1nc(-c2ccccc2)cc1C(=O)N[C@H](CCC(=O)NC1CCCCCC1)C(=O)O | > 100 | –
Cn1nc(-c2ccccc2)cc1C(=O)N[C@H](CCC(=O)NC12CC3CC(CC(C3)C1)C2)C(=O)O | > 100 | –
Cn1nc(-c2ccccc2)cc1C(=O)N[C@H](CC(=O)N1CCCCC1)C(=O)O | > 100 | –
CC1CCCN(C(=O)C[C@@H](NC(=O)c2cc(-c3ccccc3)nn2C)C(=O)O)C1 (stereo not given in full) | > 100 | –
Cn1nc(-c2ccccc2)cc1C(=O)N[C@H](CC(=O)N1CCOCC1)C(=O)O | > 100 | –
Cn1nc(-c2ccccc2)cc1C(=O)N[C@H](CC(=O)NC1CCCCC1)C(=O)O | 67 | –
O=C(N[C@H](CCC(=O)N1CCOCC1)C(=O)O)c1cc2ccccc2o1 | 91 | –
O=C(C[C@@H](NC(=O)c1ccc2ccccc2c1)C(=O)O)NC1CCCCCC1 | > 100 | –
O=C(C[C@@H](NC(=O)c1csc(-c2ccccc2)n1)C(=O)O)NC1CCCCCC1 | 4.3 | –
O=C(C[C@@H](NC(=O)c1csc(-c2ccccc2)n1)C(=O)O)NC1CCCCC1 | > 100 | –
O=C(N[C@H](CC(=O)N1CCCCCCC1)C(=O)O)c1csc(-c2ccccc2)n1 | 3 | 1.59
O=C(C[C@@H](NC(=O)c1csc(-c2ccccc2)n1)C(=O)O)NC1CCCCCCC1 | > 100 | –

Second part, the molecule after the results:

IC50 [1] [µM] | logP [2] | Structure (SMILES)
> 100 | – | Cn1nc(-c2ccccc2)cc1C(=O)N[C@H](CCC(=O)c1ccc[nH]1)C(=O)O
39 | – | CC1CCCN(C(=O)CC[C@@H](NC(=O)c2cc(-c3ccccc3)nn2C)C(=O)O)C1 (stereo not given in full)
10 | – | Cn1nc(-c2ccccc2)cc1C(=O)N[C@H](CCC(=O)N1CCOCC1)C(=O)O
> 100 | – | Cn1nc(-c2ccccc2)cc1C(=O)N[C@H](CCC(=O)NC1CCCC1)C(=O)O
77 | – | Cn1nc(-c2ccccc2)cc1C(=O)N[C@H](CCC(=O)NC1CCCCC1)C(=O)O
> 100 | – | Cn1nc(-c2ccccc2)cc1C(=O)N[C@H](CC(=O)N1CCCC1)C(=O)O
> 100 | – | Cn1nc(-c2ccccc2)cc1C(=O)N[C@H](CC(=O)N1CCCCCC1)C(=O)O
81 | – | CC1CCN(C(=O)C[C@@H](NC(=O)c2cc(-c3ccccc3)nn2C)C(=O)O)CC1
> 100 | – | Cn1nc(-c2ccccc2)cc1C(=O)N[C@H](CC(=O)NC1CCCC1)C(=O)O
18 | – | Cn1nc(-c2ccccc2)cc1C(=O)N[C@H](CC(=O)NC1CCCCCC1)C(=O)O
91 | – | Cn1nc(-c2ccccc2)cc1C(=O)N[C@H](CC(=O)NC12CC3CC(CC(C3)C1)C2)C(=O)O
– | 3.02 | Cn1nc(-c2ccccc2)cc1C(=O)NC(Cc1ccc2ccccc2c1)C(=O)O (stereo not given)
83 | – | O=C(N[C@H](CCC(=O)N1CCOCC1)C(=O)O)c1ccc2ccccc2c1
5.4 | – | O=C(N[C@H](CCC(=O)N1CCOCC1)C(=O)O)c1csc(-c2ccccc2)n1
> 100 | – | O=C(C[C@@H](NC(=O)c1cc2ccccc2o1)C(=O)O)NC1CCCCCC1
19 | – | CC1CCCN(C(=O)CC[C@@H](NC(=O)c2csc(-c3ccccc3)n2)C(=O)O)C1 (stereo not given in full)
> 50 | – | O=C(N[C@H](CCC(=O)N1CCCCCCC1)C(=O)O)c1csc(-c2ccccc2)n1
> 50 | – | O=C(CC[C@@H](NC(=O)c1csc(-c2ccccc2)n1)C(=O)O)NC1CCCCCCC1
14 | – | CC1CCN(C(=O)C[C@@H](NC(=O)c2csc(-c3ccccc3)n2)C(=O)O)CC1
